Test results from ChEMBL document CHEMBL3301361, “Experimental in vitro DMPK and physicochemical data on a set of publicly disclosed compounds”.
Converted amounts (≈) assume the structure as drawn. Residues, ends and D or L forms follow the SMILES beside them.

What was measured:
in vitro [1] = conditions: human, plasma
in vitro [2] = conditions: hepatocytes
physchem [3] = conditions: pH 7.4 buffer
physchem [4] = conditions: octan-1-ol/water

Structure (SMILES)	fraction unbound at 5 h (in vitro [1]; PPB)	hepatocyte CLint (in vitro [2]) [µL/min/1e6 cells]	solubility thermodynamic (physchem [3]) [µM]	logD (physchem [4]; pH 7.4, LogD7.4)	fraction unbound at 5 h (in vitro [1])	logD (physchem [4]; pH 7.4)
CCCCCCCC(=O)N[C@@H](C)C(=O)N[C@H](C(=O)N[C@@H](CCN)C(=O)N[C@H]1CCNC(=O)[C@H]([C@@H](C)O)NC(=O)[C@H](CCN)NC(=O)[C@H](CCN)NC(=O)[C@H](CC(C)C)NC(=O)[C@@H](Cc2ccccc2)NC(=O)[C@H](CCN)NC1=O)[C@@H](C)O (HELM PEPTIDE1{[CCCCCCCC(=O)[*:2]].A.T.[Dab].[Dab].[Dab].[dF].L.[Dab].[Dab].T}$PEPTIDE1,PEPTIDE1,5:R3-11:R2$$$V2.0)	0.107	< 3	–	–	–	–
Cc1cn([C@H]2CCCN(S(=O)(=O)c3ccc(O)c(Oc4cc(F)cc(Cl)c4)c3)C2)c(=O)[nH]c1=O	0.0119	74.1	–	–	–	–
CC(=O)N[C@@H](CCN)C(=O)N[C@H](C(=O)N[C@@H](CCN)C(=O)N[C@H]1CCNC(=O)[C@H]([C@@H](C)O)NC(=O)[C@H](CCN)NC(=O)[C@H](CCN)NC(=O)[C@H](CC(C)C)NC(=O)[C@@H](Cc2ccccc2)NC(=O)[C@H](CCN)NC1=O)[C@@H](C)O [DEACYL POLYMYXIN B] (HELM PEPTIDE1{[ac].[Dab].T.[Dab].[Dab].[Dab].[dF].L.[Dab].[Dab].T}$PEPTIDE1,PEPTIDE1,5:R3-11:R2$$$V2.0)	0.355	< 3	–	–	–	–
O=c1cc(-c2cccnc2)[nH]c2cc(Cc3ccccc3)ccc12	0.0051	50	1.7 (≈ 0.531 µg/mL)	3.46	–	–
NC1(c2ccc(-c3nc4ccccc4cc3-c3ccccc3)cc2)CCC1	–	148	288 (≈ 101 µg/mL)	–	–	–
Cc1cn([C@H]2CCCN(S(=O)(=O)c3ccc(O)c(Oc4ccc(Cl)cc4)c3)C2)c(=O)[nH]c1=O	0.0139	89.1	–	2.12	–	–
Cc1cn([C@H]2CCCN([C@H](CC3CCOCC3)c3ccc(C(=O)O)c(Oc4cccc(Cl)c4)c3)C2)c(=O)[nH]c1=O	0.107	19.1	–	-0.25	–	–
Cc1ccc(S(=O)(=O)Nc2c(C(=O)N[C@@H](C)C(C)(C)C)c(C)nn2C2CCOC2)cc1 (stereo partly drawn)	0.0736	< 3	–	0.78	–	–
C[C@@](C(=O)O[C@H]1C[N+]2(CCCc3ccncc3)CCC1CC2)(c1ccccc1)N1CCCCC1	–	82	–	–	0.483	–
COc1cc2c(ccc(=O)n2CCN2CCC(NCc3cc4c(cn3)OCCO4)CC2)cn1	0.166	35.5	–	0.68	–	–
Cc1cc(Nc2nc(N[C@@H](C)c3ccc(F)cn3)c(C#N)cc2Cl)n[nH]1	0.0358	6.17	–	–	–	–
C[C@@]1(C(=O)Nc2ccc(F)nc2)CCCN1c1nc(Nc2cc(C3CC3)n[nH]2)c2cccn2n1 [BMS-754807]	0.0209	70.8	–	3.16	–	–
CCC(CC)C[C@H](c1ccc(C(=O)O)c(Oc2cccc(Cl)c2)c1)N1CCC[C@H](n2cc(C)c(=O)[nH]c2=O)C1	0.0119	36.3	–	1.68	–	–
CCCCCCCC(=O)N[C@@H](CCN)C(=O)N[C@@H](C)C(=O)N[C@@H](CCN)C(=O)N[C@H]1CCNC(=O)[C@H]([C@@H](C)O)NC(=O)[C@H](CCN)NC(=O)[C@H](CCN)NC(=O)[C@H](CC(C)C)NC(=O)[C@@H](Cc2ccccc2)NC(=O)[C@H](CCN)NC1=O (HELM PEPTIDE1{[CCCCCCCC(=O)[*:2]].[Dab].A.[Dab].[Dab].[Dab].[dF].L.[Dab].[Dab].T}$PEPTIDE1,PEPTIDE1,5:R3-11:R2$$$V2.0)	0.0768	< 3	–	–	–	–
C=CC(=O)Nc1ccc2ncnc(Nc3cccc(C)c3)c2c1	–	> 150	16.6 (≈ 5.05 µg/mL)	3.7	–	–
O=c1cc(-c2cccnc2)[nH]c2cc(C(O)c3ccccc3)ccc12 (stereo not drawn)	0.0268	46	288 (≈ 94.7 µg/mL)	–	–	–
CC(=O)Nc1ccc2ccn(-c3cc(NC4COC4)n4ncc(C#N)c4n3)c2c1	0.124	21.9	–	2.24	–	–

Structure (SMILES)	fraction unbound at 5 h (in vitro [1]; PPB)	hepatocyte CLint (in vitro [2]) [µL/min/1e6 cells]	solubility thermodynamic (physchem [3]) [µM]	logD (physchem [4]; pH 7.4, LogD7.4)	fraction unbound at 5 h (in vitro [1])	logD (physchem [4]; pH 7.4)
Cc1cn([C@H]2CCCN([C@@H](CC(C)(C)C)c3ccc(C(=O)O)c(Oc4cccc(Br)c4)c3)C2)c(=O)[nH]c1=O	0.0099	< 3	–	1.12	–	–
CCCCCCCC(=O)N[C@@H](CCN)C(=O)N[C@H](C(=O)N[C@@H](CCN)C(=O)N[C@H]1CCNC(=O)[C@H](C)NC(=O)[C@H](CCN)NC(=O)[C@H](CCN)NC(=O)[C@H](CC(C)C)NC(=O)[C@@H](Cc2ccccc2)NC(=O)[C@H](CCN)NC1=O)[C@@H](C)O (HELM PEPTIDE1{[CCCCCCCC(=O)[*:2]].[Dab].T.[Dab].[Dab].[Dab].[dF].L.[Dab].[Dab].A}$PEPTIDE1,PEPTIDE1,5:R3-11:R2$$$V2.0)	0.0581	< 3	–	–	–	–
N#CCNC(=O)c1ccc(-c2ccnc(Nc3ccc(N4CCOCC4)cc3)n2)cc1 [MOMELOTINIB]	0.103	5.13	–	2.37	–	–
CN[C@@H](C)C(=O)N[C@H]1CN(C(=O)CC(C)C)CC[C@H]2CC[C@@H](C(=O)NC(c3ccccc3)c3ccccc3)N2C1=O [XEVINAPANT]	0.253	17	–	1.82	–	–
Cc1cn([C@H]2CCCN(S(=O)(=O)c3ccc(O)c(Oc4cccc(Br)c4)c3)C2)c(=O)[nH]c1=O	0.0139	38	–	2.3	–	–
CC(=O)Nc1ccc2c(c1)c(-c1cc(NC3CC3)n3ncc(C#N)c3n1)cn2CCCO	0.0119	12.3	–	2.48	–	–
CC(=O)[C@@]1(O)CC[C@H]2[C@@H]3CCC4=CC(=O)CCC4=C3[C@@H](c3ccc(N(C)C)cc3)C[C@@]21C [ULIPRISTAL]	–	> 150	–	–	0.0049	–
C[C@@H]1CN(Cc2cc(Cl)ccc2OCC(=O)O)CCN1S(=O)(=O)c1ccccc1	0.0051	7.48	–	–	–	–
COc1ccc2ncc(C#N)c(CCN3CCC(NCc4cc5c(cn4)OCS5)CC3)c2c1	0.089	72.4	–	2.55	–	–
CO[C@H]1/C=C/O[C@@]2(C)Oc3c(C)c(O)c4c(O)c(cc(O)c4c3C2=O)NC(=O)/C(C)=C\C=C\[C@H](C)[C@H](O)[C@@H](C)[C@@H](O)[C@@H](C)[C@H](OC(C)=O)[C@@H]1C [RIFAMYCIN]	–	< 3	–	1.19	–	–
Cc1ccccc1C(OCCN(C)C)c1ccccc1 (stereo not drawn) [ORPHENADRINE]	–	> 150	–	1.47	–	–
CCCC(C)(C)C[C@H](c1ccc(C(=O)O)c(Oc2cccc(Cl)c2)c1)N1CCC[C@H](n2cc(C)c(=O)[nH]c2=O)C1	0.0099	52.5	–	1.99	–	–
COc1cccc(CNc2nc(NC(C)C)nc3ccsc23)c1OC	–	> 150	–	–	0.0027	–
CS(=O)(=O)N1CC[C@H](N(Cc2ccccc2Cl)c2ccc(C#N)c(Cl)c2)C1	–	72.4	–	–	–	4
O=C(O)c1cc2cc(OCc3ccccc3)ccc2[nH]1	–	25.7	–	0.4	–	–
CC(NC(=O)c1cc(O)nc2ccccc12)c1ccccc1 (stereo not drawn)	–	5.25	–	–	0.36	2.2
CO[C@H]1CC[C@]2(CC1)Cc1ccc(-c3cc(Cl)cc(C#N)c3)cc1C21N=C(C)C(N)=N1 (stereo partly drawn)	0.0209	12.6	–	3.8	–	–
